In EP0426075A1, “Benzylpyrrolidine derivatives as dopamine agonists” (SYNTEX (U.S.A.) INC., priority 1989, dated 1991):

Assays:
[1] = system: DA1 receptor; assay: Goldberg in situ renal arterial preparation (renal DA1 assay), intra-arterial injection; format: in vivo, dog; conditions: for Relative Efficacy to DA1 Standard: optimal response of test compound divided by optimal response of dopamine; for ED50: renal blood flow increase, i.a. bolus into renal artery, anesthetized dog; for Relative Potency to DA1 Standard: standard (dopamine) ED50 divided by test compound ED50
Method: The compounds were subsequently tested following intra-arterial administration in an in situ renal and femoral arterial preparation in the dog, as developed by L.I. Goldberg, to test for DA1 and DA2 dopamine activity, respectively. Details of the methodology are provided in the European J. Pharmacol. 89 :137, 1983, as well as in Hypertension 6 :1-25, 1984.
The compounds of this invention were tested following intra-arterial administration in an in situ renal and femoral arterial preparation in the dog, as developed by L.I. Goldberg, to test for DA1 and DA2 dopamine activity, respectively. Details of the methodology are provided in the European J. Pharmacol. , 89 :137, 1983, as well as in Hypertension , 6 :1-25, 1984. J. L. McNay, L. I. Goldberg JPET 151 :23-31, 1966.
The compounds were injected directly into the renal or femoral artery for analysis of DA, or DA2 activity, respectively. […] The compounds were tested for relative activity in comparison to the standard DA, agonist, dopamine or the standard DA2 agonist, DPDA. Specific DA, or DA2 activity of the tested compound was verified by Sch 23390 or domperidone blockade.
Adult mongrel dogs of either sex (12-20 kg) were anesthetized with pentobarbital sodium (33 mg/kg, i.v.). The animals were intubated and ventilated with room air using a Harvard respirator.
The compounds of this invention were tested following intra-arterial administration in an in situ renal and femoral arterial preparation in the dog, as developed by L.I. Goldberg, to test for DA1 and DA2 dopamine activity, respectively. Details of the methodology are provided in the European J. Pharmacol. , 89 :137, 1983, as well as in Hypertension , 6 :1-25, 1984. J. L. McNay, L. I. Goldberg JPET 151 :23-31, 1966
The compounds were injected directly into the renal or femoral artery for analysis of DA1 or DA2 activity, respectively. […] The compounds were tested for relative activity in comparison to the standard DA1 agonist, dopamine or the standard DA2 agonist, DPDA. Specific DA, or DA2 activity of the tested compound was verified by Sch 23390 or domperidone blockade.
The abdominal aorta was catheterized with a Millar micro-tip (size: 5F) transducer via the right femoral artery for blood pressure monitoring. The right femoral vein was cannulated with PE-160 tubing for iv saline infusion, as well as supplemental pentobarbital administration. The left renal artery was isolated through a lateral abdominal incision. An electromagnetic flowprobe of the appropriate size (8-11 mm circ.) was placed around the artery and connected to a Carolina Medical electromagnetic flowmeter. Surface ECG leads were placed subcutaneously on the chest and limbs to monitor heart rate. A 25 gauge 3/4" needle bent 90°, 4 mm from the tip, was placed in the renal artery proximal to the probe and connected to an infusion pump delivering saline at a constant rate of 1 ml/min. Following a saline and 1µg norepinephrine (NE) challenge, both given in an injection volume of 0.2 ml, the animal was treated with a phenoxybenzamine, 0.5 mg/kg/min i.a., infusion for a duration of 10-20 minutes as necessary to achieve a complete blockade of the NE challenge. Blood pressure was maintained by supplemental saline infusion (10-20 ml/kg, iv). Bradykinin, a standard for nonspecific vasodilation, was given at 0.60 nmole doses, in 0.2 ml saline, i.a., prior to generating a dose response curve for dopamine in which 4-fold increasing doses, ranging from 3 to 48 nmoles, were injected i.a. in 0.2 ml of saline (i.a. bolus). Test compounds were injected similarly in 4-fold increasing doses up to a maximum of 3000 nmoles. Compounds were then repeated at their optimal dose following Sch 23390 pretreatment (0.05 - 0.10 mg/kg, iv).
Efficacy ratios were determined by division of the optimal response of the test compound by the optimal response of the standard agent.

[2] = system: conscious restrained spontaneously hypertensive rat; assay: Spontaneous Hypertensive Rats - antihypertensive activity, conscious restrained, oral; format: in vivo; conditions: for Peak decreases, mean blood pressure / Peak decreases, systolic blood pressure / heart rate following administration / duration of action: SHR, oral; for duration of action: blood pressure decrease; for Diastolic Blood Pressure (mm Hg) / Heart Rate (beats/ min) / Mean Blood Pressure (mm Hg) / Systolic Blood Pressure (mm Hg): change from control (XΔ ± SD), n = 4
Method: Finally, these compounds were screened for oral antihypertensive activity in the conscious restrained rat. Adult male SHR were instrumented for blood pressure and heart rate measurements under light ether anesthesia. The animals were maintained on a plexiglass restraining board following surgery, and were allowed a 1 hour recovery period prior to the oral administration of the test compounds.
The compounds of this invention were screened for oral antihypertensive activity in the conscious restrained spontaneously hypertensive rat.
Male spontaneously hypertensive rats, SHR/NCrIBr (320-410 g) were fasted overnight. The following morning the left femoral artery and vein of each rat was cannulated under light ether anesthesia. Following surgery, the rats were placed on a rat restraining board and allowed to recover from the effects of the ether for 1 hour. ECG leads were placed on the animal's chest to monitor heart rate. Animals were divided into groups of 4 and dosed with the test compounds.
Blood pressure and heart rate readings were taken at 5 minute intervals for the first 15 minutes and […] thereafter for a duration of 4 hour post-compound administration. Data was evaluated by two- tailed paired t-tests.

Br.Br.CCCN(CCCCCCN1CCC[C@@H]1Cc1ccc(O)c(O)c1)CCc1ccc(O)cc1 [Test Compound 1, (R)-2-(3,4-dihydroxybenzyl)-1-[6-(N-(4-hydroxyphenethyl)-N-propylamino)hexyl]pyrrolidine dihydrobromide]
Relative Efficacy to DA1 Standard [1]: 1.10 | ED50 [1]: 0.87 nmol | Relative Potency to DA1 Standard [1]: 6.44 | Peak decreases, mean blood pressure [2]: about 20% | Peak decreases, systolic blood pressure [2]: about 20% | heart rate following administration [2]: not significantly altered | duration of action [2]: up to 4 hours

Br.Br.CCCN(CCCCCCN1CCC[C@@H]1Cc1ccc(O)c(O)c1)CCc1cccc(O)c1 [Test Compound 2, (R)-2-(3,4-dihydroxybenzyl)-1-[6-(N-(3-hydroxyphenethyl)-N-propylamino)hexyl]pyrrolidine dihydrobromide]
Relative Efficacy to DA1 Standard [1]: 0.93 | ED50 [1]: 0.34 nmol | Relative Potency to DA1 Standard [1]: 17.47 | Peak decreases, mean blood pressure [2]: 17% | Peak decreases, systolic blood pressure [2]: 17% | heart rate following administration [2]: not significantly altered | duration of action [2]: up to 4 hours | Diastolic Blood Pressure (mm Hg) ([2]; po 3 mg/kg, 1 hour): -8 ± 12 mm Hg | Heart Rate (beats/ min) ([2]; po 3 mg/kg, 1 hour): -5 ± 12 beats/ min | Mean Blood Pressure (mm Hg) ([2]; po 3 mg/kg, 1 hour): -12 ± 18 mm Hg | Systolic Blood Pressure (mm Hg) ([2]; po 3 mg/kg, 1 hour): -13 ± 25 mm Hg | Diastolic Blood Pressure (mm Hg) ([2]; po 3 mg/kg, 2 hours): -6 ± 3 mm Hg | Heart Rate (beats/ min) ([2]; po 3 mg/kg, 2 hours): 5 ± 11 beats/ min | Mean Blood Pressure (mm Hg) ([2]; po 3 mg/kg, 2 hours): -7 ± 8 mm Hg | Systolic Blood Pressure (mm Hg) ([2]; po 3 mg/kg, 2 hours): -9 ± 13 mm Hg | Diastolic Blood Pressure (mm Hg) ([2]; po 3 mg/kg, 3 hours): -4 ± 17 mm Hg | Heart Rate (beats/ min) ([2]; po 3 mg/kg, 3 hours): 6 ± 18 beats/ min | Mean Blood Pressure (mm Hg) ([2]; po 3 mg/kg, 3 hours): -8 ± 14 mm Hg | Systolic Blood Pressure (mm Hg) ([2]; po 3 mg/kg, 3 hours): -19 ± 22 mm Hg | Diastolic Blood Pressure (mm Hg) ([2]; po 3 mg/kg, 4 hours): -9 ± 7 mm Hg | Heart Rate (beats/ min) ([2]; po 3 mg/kg, 4 hours): 10 ± 23 beats/ min | Systolic Blood Pressure (mm Hg) ([2]; po 3 mg/kg, 4 hours): -29 ± 19 mm Hg | Diastolic Blood Pressure (mm Hg) ([2]; po 10 mg/kg, 1 hour): -19 ± 3 mm Hg | Heart Rate (beats/ min) ([2]; po 10 mg/kg, 1 hour): -11 ± 6 beats/ min | Mean Blood Pressure (mm Hg) ([2]; po 10 mg/kg, 1 hour): -21 ± 3 mm Hg | Systolic Blood Pressure (mm Hg) ([2]; po 10 mg/kg, 1 hour): -26 ± 6 mm Hg | Diastolic Blood Pressure (mm Hg) ([2]; po 10 mg/kg, 2 hours): -11 ± 21 mm Hg | Heart Rate (beats/ min) ([2]; po 10 mg/kg, 2 hours): -6 ± 8 beats/ min | Mean Blood Pressure (mm Hg) ([2]; po 10 mg/kg, 2 hours): -21 ± 8 mm Hg | Systolic Blood Pressure (mm Hg) ([2]; po 10 mg/kg, 2 hours): -28 ± 10 mm Hg | Diastolic Blood Pressure (mm Hg) ([2]; po 10 mg/kg, 3 hours): -19 ± 8 mm Hg | Heart Rate (beats/ min) ([2]; po 10 mg/kg, 3 hours): -5 ± 11 beats/ min | Mean Blood Pressure (mm Hg) ([2]; po 10 mg/kg, 3 hours): -27 ± 4 mm Hg | Systolic Blood Pressure (mm Hg) ([2]; po 10 mg/kg, 3 hours): -36 ± 23 mm Hg | Diastolic Blood Pressure (mm Hg) ([2]; po 10 mg/kg, 4 hours): -16 ± 7 mm Hg | Heart Rate (beats/ min) ([2]; po 10 mg/kg, 4 hours): 1 ± 3 beats/ min | Mean Blood Pressure (mm Hg) ([2]; po 10 mg/kg, 4 hours): -22 ± 12 mm Hg | Systolic Blood Pressure (mm Hg) ([2]; po 10 mg/kg, 4 hours): -31 ± 20 mm Hg | Diastolic Blood Pressure (mm Hg) ([2]; po 30 mg/kg, 1 hour): -6 ± 5 mm Hg | Heart Rate (beats/ min) ([2]; po 30 mg/kg, 1 hour): -1 ± 10 beats/ min | Mean Blood Pressure (mm Hg) ([2]; po 30 mg/kg, 1 hour): -5 ± 9 mm Hg | Systolic Blood Pressure (mm Hg) ([2]; po 30 mg/kg, 1 hour): -4 ± 14 mm Hg | Diastolic Blood Pressure (mm Hg) ([2]; po 30 mg/kg, 2 hours): -17 ± 6 mm Hg | Heart Rate (beats/ min) ([2]; po 30 mg/kg, 2 hours): 9 ± 10 beats/ min | Mean Blood Pressure (mm Hg) ([2]; po 30 mg/kg, 2 hours): -14 ± 14 mm Hg | Systolic Blood Pressure (mm Hg) ([2]; po 30 mg/kg, 2 hours): -18 ± 10 mm Hg | Diastolic Blood Pressure (mm Hg) ([2]; po 30 mg/kg, 3 hours): -15 ± 5 mm Hg | Heart Rate (beats/ min) ([2]; po 30 mg/kg, 3 hours): 18 ± 15 beats/ min | Mean Blood Pressure (mm Hg) ([2]; po 30 mg/kg, 3 hours): -17 ± 11 mm Hg | Systolic Blood Pressure (mm Hg) ([2]; po 30 mg/kg, 3 hours): -26 ± 17 mm Hg | Diastolic Blood Pressure (mm Hg) ([2]; po 30 mg/kg, 4 hours): -20 ± 9 mm Hg | Heart Rate (beats/ min) ([2]; po 30 mg/kg, 4 hours): 20 ± 16 beats/ min | Systolic Blood Pressure (mm Hg) ([2]; po 30 mg/kg, 4 hours): -32 ± 20 mm Hg
